Measurements taken from patent US7879823B2, “Topical anti-cancer compositions and methods of use thereof” (Johnson & Johnson Consumer Companies, priority 1999, dated 2011).

B1: STI: trypsin inhibitor (STI; 0.8 mg; T9003, Sigma) in 100 ul liposomes (protein, UniProt P01070 25-205, looked up)
Trypsin inhibitor A: DFVLDNEGNPLENGGTYYILSDITAFGGIRAAPTGNERCPLTVVQSRNELDKGIGTIISSPYRIRFIAEGHPLSLKFDSFAVIMLCVGIPTEWSVVEDLPEGPAVKIGENKDAMDGWFRLERVSDDEFNNYKLVFCPQQAEDDKCGDIGISIDHDDGTRRLVVSKNKPLVVQFQKLDKESL
modifications: in liposomes
notes: 0.8 mg; T9003, Sigma) in 100 ul liposomes
B2: BBI: Bowman-Birk protease inhibitor (BBI; 0.8 mg; T97770, Sigma) in 100 ul liposomes (protein, UniProt P01055 40-110, looked up)
Bowman-Birk type proteinase …: DDESSKPCCDQCACTKSNPPQCRCSDMRLNSCHSACKSCICALSYPAQCFCVDITDFCYEPCKPSEDDKEN
modifications: in liposomes
notes: 0.8 mg; T97770, Sigma) in 100 ul liposomes

System: Skin Tumors in SKH-1 Mice Previously Treated with Ultraviolet B Light
Test: Development of skin tumors in high-risk SKH-1 mice previously treated with UVB, topical application
Format: in vivo
Details: for Effect on tumor growth / tumor progression (tumor volume per mouse), in words: daily topical treatment, 21 weeks of the treatment phase, relative to control; for Percent of mice with tumors / Tumor volume per mouse / Tumor volume per tumor / Tumors per mouse: topical once a day 5 days per week
Excerpt: Co. (Byran, Ohio). […] Controls include vehicle alone and an unrelated protein (BSA). […] Louis, Mo.). Acetone was from Fisher Scientific (Springfield, N.J.).

Molecule | Percent of mice with tumors (week 0) | Tumor volume per mouse (week 0) [mm^3] | Tumor volume per tumor (week 0) [mm^3] | Tumors per mouse (week 0) | Percent of mice with tumors (week 6) [%] | Tumor volume per mouse (week 6) [mm^3] | Tumor volume per tumor (week 6) [mm^3] | Tumors per mouse (week 6) | Tumor volume per mouse (week 9) [mm^3] | Tumor volume per tumor (week 9) [mm^3] | Tumors per mouse (week 9) | Percent of mice with tumors (week 12) [%] | Tumor volume per mouse (week 12) [mm^3] | Tumor volume per tumor (week 12) [mm^3] | Tumors per mouse (week 12) | Percent of mice with tumors (week 15) [%] | Tumor volume per mouse (week 15) [mm^3] | Tumor volume per tumor (week 15) [mm^3] | Tumors per mouse (week 15) | Percent of mice with tumors (week 18) [%] | also measured
Cn1c(=O)c2c(ncn2C)n(C)c1=O [Caffeine, caffeine] | 0 | 0 | 0 | 0 | 16.7 | 0.2 ± 0.1 | 1.3 ± 0.7 | 0.2 ± 0.1 | 0.7 ± 0.5 | 3.4 ± 2.2 | 0.2 ± 0.1 | 50.0 | 4.0 ± 1.9 | 3.2 ± 0.8 | 1.3 ± 0.4 | 56.7 | 6.7 ± 2.2 | 3.2 ± 0.6 | 2.1 ± 0.5 | 80.0 | Effect on tumor growth / tumor progression (tumor volume per mouse), in words: marked delay in tumor progression; Number of tumors per mouse, in words (following topical treatment): reduced; Percent of tumor-bearing mice, in words (following topical treatment): reduced; Tumor volume per tumor, in words (following topical treatment): reduced; Tumor volume per mouse (week 18): 22.1 ± 6.2 mm^3; Tumor volume per tumor (week 18): 6.2 ± 1.3 mm^3; Tumors per mouse (week 18): 3.6 ± 0.6; Percent of mice with tumors (week 21): 76.7%; Tumor volume per mouse (week 21): 21.5 ± 6.0 mm^3; Tumor volume per tumor (week 21): 5.3 ± 1.0 mm^3; Tumors per mouse (week 21): 4.0 ± 0.7
BSA in liposomes: bovine serum albumin (0.8 mg) in 100 ul liposomes; unrelated protein control | 0 | 0 | 0 | 0 | 20.0 | 0.6 ± 0.5 | 2.5 ± 1.9 | 2.0 ± 0.1 | 2.9 ± 1.4 | 2.7 ± 1.2 | 1.1 ± 0.3 | 80.0 | 9.1 ± 3.1 | 3.5 ± 1.0 | 2.6 ± 0.6 | 90.0 | 21.4 ± 6.6 | 4.0 ± 0.7 | 5.3 ± 0.8 | 90.0 | Percent of mice with tumors (week 9): 50.0%; Tumor volume per mouse (week 18): 41.1 ± 9.7 mm^3; Tumor volume per tumor (week 18): 6.3 ± 1.0 mm^3; Tumors per mouse (week 18): 6.5 ± 0.9; Percent of mice with tumors (week 21): 90.0%; Tumor volume per mouse (week 21): 44.7 ± 11.6 mm^3; Tumor volume per tumor (week 21): 6.3 ± 1.0 mm^3; Tumors per mouse (week 21): 7.1 ± 0.8
B1 | 0 | 0 | 0 | 0 | 16.7 | 0.8 ± 0.6 | 3.5 ± 1.9 | 0.2 ± 0.1 | 2.6 ± 1.4 | 3.0 ± 1.4 | 0.9 ± 0.2 | 46.7 | 9.4 ± 3.9 | 4.8 ± 1.3 | 1.9 ± 0.5 | 55.2 | 17.8 ± 7.9 | 5.8 ± 2.1 | 3.1 ± 0.7 | 63.3 | Effect on tumor growth / tumor progression (tumor volume per mouse), in words: unexpected and significant effect on tumor progression; Percent of mice with tumors (week 9): 41.4%; Tumor volume per mouse (week 18): 30.7 ± 11.9 mm^3; Tumor volume per tumor (week 18): 7.3 ± 2.2 mm^3; Tumors per mouse (week 18): 4.2 ± 0.9; Percent of mice with tumors (week 21): 80.0%; Tumor volume per mouse (week 21): 48.7 ± 23.3 mm^3; Tumor volume per tumor (week 21): 8.6 ± 3.2 mm^3; Tumors per mouse (week 21): 5.6 ± 0.9
B2 | 0 | 0 | 0 | 0 | 30.0 | 0.3 ± 0.1 | 0.9 ± 0.3 | 0.4 ± 0.1 | 1.0 ± 0.7 | 1.7 ± 0.8 | 0.6 ± 0.2 | 50.0 | 3.7 ± 1.8 | 2.4 ± 0.8 | 1.5 ± 0.4 | 66.7 | 9.0 ± 2.4 | 4.1 ± 0.8 | 2.2 ± 0.4 | 76.7 | Percent of mice with tumors (week 9): 27.6%; Tumor volume per mouse (week 18): 19.0 ± 4.6 mm^3; Tumor volume per tumor (week 18): 5.9 ± 1.3 mm^3; Tumors per mouse (week 18): 3.2 ± 0.6; Percent of mice with tumors (week 21): 90.0%; Tumor volume per mouse (week 21): 33.2 ± 9.6 mm^3; Tumor volume per tumor (week 21): 7.4 ± 2.0 mm^3; Tumors per mouse (week 21): 4.5 ± 0.6
